Biological target: T1, hSK2 channels (Homo sapiens, UniProt P0DP23+Q9H2S1)
T1 construct: expressed in transfected cells; host or cells: HEK293
Assay: Whole-cell patch-clamp recording of SK2 channel current (SC100)
Type: cell-based
Conditions: Stimulating Concentration required for increasing the baseline current by 100%; HEK293 cells expressing hSK2; Table 3
Experimental: The biological activity of certain compounds were determined as follows. The ionic current through small-conductance Ca^2+-activated K^+ channels (SK channels, subtype 2) is recorded using the whole-cell configuration of the patch-clamp technique in a classic patch-clamp set-up using HEK293 tissue culture cells expressing hSK2 channels as described in Kasumu et. al., Chemistry & Biology 19, 1340-1353, Oct. 26, 2012.
The SC100 value determined is defined as the Stimulating Concentration required for increasing the baseline current by 100%.

SC100 uM	Structure (SMILES)
++ (++ means 200 nM-1000 nM)	CC(=O)NCc1cc(Nc2ccc(F)cc2)nc(-n2cc(C)c(C(C)O)n2)c1 (centres unmarked) [Compound 167, N-((2-((4-fluorophenyl)amino)-6-(3-(1-hydroxyethyl)-4-methyl-1H-pyrazol-1-yl)pyridin-4-yl)methyl)acetamide]
+++ (+++ means <200 nM)	CC(=O)NCc1cc(Nc2ccc(F)cc2)nc(-n2cc(C)c(C(F)F)n2)c1 [Compound 168, N-((2-(3-(difluoromethyl)-4-methyl-1H-pyrazol-1-yl)-6-((4-fluorophenyl)amino)pyridin-4-yl)methyl)acetamide]
+ (+ means >1 uM)	Cc1cc(C)n(Cc2cc(Nc3ccc(F)cc3)nc(-n3ccc(CO)n3)c2)n1 [Compound 169, (1-(4-((3,5-dimethyl-1H-pyrazol-1-yl)methyl)-6-((4-fluorophenyl)amino)pyridin-2-yl)-1H-pyrazol-3-yl)methanol]
++ (++ means 200 nM-1000 nM)	Cc1cc(C)n(Cc2cc(Nc3ccc(F)cc3)nc(-n3ccc(CF)n3)c2)n1 [Compound 170, 4-((3,5-dimethyl-1H-pyrazol-1-yl)methyl)-6-(3-(fluoromethyl)-1H-pyrazol-1-yl)-N-(4-fluorophenyl)pyridin-2-amine]

Same assay, conditions: Stimulating Concentration required for increasing the baseline current by 100%; HEK293 cells expressing hSK2; Table 4

SC100 (μM)	Structure (SMILES)
+ (+ means >1 uM)	Cc1ccn(-c2nc(Nc3c(C)cccc3Cl)cc(C(C)O)n2)n1 (centres unmarked) [IN10864-081-P1]
++ (++ means 200 nM-1000 nM)	Cc1ccn(-c2nc(Nc3ccccc3Cl)cc(C(C)O)n2)n1 (centres unmarked) [IN10881-055-P1]
++ (++ means 200 nM-1000 nM)	Cc1ccn(-c2nc(Nc3ccc(F)cc3)cc(C(C)O)n2)n1 (centres unmarked) [IN10882-054-P1]
+ (+ means >1 uM)	Cc1cc(C)n(-c2cc(C(C)O)cc(Nc3ccc(F)cc3)n2)n1 (centres unmarked) [IN10964-084-P1, 1-(2-(3,5-dimethyl-1H-pyrazol-1-yl)-6-((4-fluorophenyl)amino)pyridin-4-yl)ethan-1-ol]
++ (++ means 200 nM-1000 nM)	COc1cc(Nc2ccc(F)cc2F)nc(-c2nc(C)cs2)n1 [IN11059-023-P1]
++ (++ means 200 nM-1000 nM)	COc1cc(Nc2ccc(F)cc2)nc(-c2nc(C)cs2)n1 [IN11059-059-P1]
+ (+ means >1 uM)	COC(C)c1cc(Nc2ccc(F)cc2F)nc(-c2nc(C)cs2)n1 (centres unmarked) [IN11059-067-P1, N-(2,4-difluorophenyl)-6-(1-methoxyethyl)-2-(4-methylthiazol-2-yl) pyrimidin-4-amine]
+ (+ means >1 uM)	Cc1cc(Nc2ccc(F)cc2)nc(-c2ccccn2)n1 [IN11121-037-P1, N-(4-fluorophenyl)-6-methyl-2-(pyridin-2-yl)pyrimidin-4-amine]
+ (+ means >1 uM)	Cc1cccc(-c2nccc(Nc3ccc(F)cc3)n2)n1 [IN11130-036-P1]
+ (+ means >1 uM)	Fc1ccc(Nc2ccnc(-n3ccc(C4CC4)n3)n2)cc1 [IN11166-018-P1, 2-(3-cyclopropyl-1H-pyrazol-1-yl)-N-(4-fluorophenyl) pyrimidin-4-amine]
+ (+ means >1 uM)	Cc1cc(Nc2ccc(F)cc2)nc(-c2ccc(C)[nH]2)n1 [IN11196-053-P1, N-(4-fluorophenyl)-6-methyl-2-(5-methyl-1H-pyrrol-2-yl)pyrimidin-4-amine]
+ (+ means >1 uM)	Cc1cc(Nc2ccc(F)cc2)nc(-c2nc(C)ccc2C)n1 [IN11237-001-P1, 2-(3,6-dimethylpyridin-2-yl)-N-(4-fluorophenyl)-6-methylpyrimidin-4-amine]
+++ (+++ means <200 nM)	CC1(O)CN(c2cc(Nc3ccc(F)cc3)nc(-n3ccc(CF)n3)c2)C1 [NSSy5632]
+++ (+++ means <200 nM)	Cc1ccn(-c2cc(CN3CCCC3=O)cc(Nc3ccc(Cl)cc3)n2)n1 [NSSy5701, 1-((2-((4-chlorophenyl)amino)-6-(3-methyl-1H-pyrazol-1-yl)pyridin-4-yl)methyl) pyrrolidin-2-one]
+ (+ means >1 uM)	CN(C)C1CN(c2cc(Nc3ccc(F)cc3)nc(-n3ccc(CF)n3)c2)C1 [NSSy5713]
++ (++ means 200 nM-1000 nM)	Cc1ccn(-c2cc(CO)cc(Nc3ccc(F)cc3F)n2)n1 [NSSy6773, (2-((2,4-difluorophenyl)amino)-6-(3-methyl-1H-pyrazol-1-yl)pyridin-4-yl) methanol]
++ (++ means 200 nM-1000 nM)	Cc1cccc(-c2nc(Nc3ccc(F)cc3)cc(N3CCOCC3)n2)n1 [NSSy6907, N-(4-fluorophenyl)-2-(6-methylpyridin-2-yl)-6-morpholinopyrimidin-4-amine]
+ (+ means >1 uM)	COc1cc(Nc2ccc(F)cc2)nc(-c2cccc(C)n2)n1 [NSSy6908]
+ (+ means >1 uM)	Cc1cc(Nc2ccc(F)cc2)nc(-n2ccc(C3CC3)n2)n1 [NSSy6921, 2-(3-cyclopropyl-1H-pyrazol-1-yl)-N-(4-fluorophenyl)-6-methylpyrimidin-4-amine]

Structure (SMILES)	SC100 (μM)
Cc1ccn(-c2nc(Nc3cccc(C(F)(F)F)c3)cc(C(C)O)n2)n1 (centres unmarked) [IN10876-033-P1]	++ (++ means 200 nM-1000 nM)
CC(=O)c1cc(Nc2cccc(C(F)(F)F)c2)nc(-n2ccc(C)n2)n1 [IN10876-038-P1]	+ (+ means >1 uM)
Cc1csc(-c2nc(Nc3ccc(F)cc3)cc(C(C)O)n2)n1 (centres unmarked) [IN10880-091-P1, 1-(6-((4-fluorophenyl)amino)-2-(4-methylthiazol-2-yl)pyrimidin-4-yl)ethan-1-ol]	++ (++ means 200 nM-1000 nM)
Cc1csc(-c2nc(Nc3cccc(C(F)(F)F)c3)cc(C(C)O)n2)n1 (centres unmarked) [IN10880-092-P1]	++ (++ means 200 nM-1000 nM)
Cc1cc(C)n(-c2nc(Nc3ccc(F)cc3)cc(C(C)O)n2)n1 (centres unmarked) [IN10973-006-P1]	++ (++ means 200 nM-1000 nM)
Cc1cc(C)n(-c2nc(Nc3cccc(C(F)(F)F)c3)cc(C(C)O)n2)n1 (centres unmarked) [IN10973-007-P1]	+++ (+++ means <200 nM)
